In ChEMBL document CHEMBL3045399, “A novel series of homoallylic amines as potential antimicrobials” (2012):
Converted amounts (≈) assume the structure as drawn. The source made the active and inactive calls. The calls are words filed in the database; no cut-off is given here.

Key:
[1] = test system: Pseudomonas aeruginosa; experiment: Antimicrobial activity against Pseudomonas aeruginosa after 16 hr by serial dilution method; type: functional
[2] = test system: Escherichia coli; experiment: Antimicrobial activity against Escherichia coli after 16 hr by serial dilution method; type: functional
[3] = test system: Bacillus subtilis; experiment: Antimicrobial activity against Bacillus subtilis after 16 hr by serial dilution method; type: functional
[4] = test system: Staphylococcus aureus; experiment: Antimicrobial activity against Staphylococcus aureus after 16 hr by serial dilution method; type: functional
[5] = test system: Pseudomonas aeruginosa; experiment: Antimicrobial activity against Pseudomonas aeruginosa at 1.6125 to 50 ug/ml after 16 hr by serial dilution method; type: functional, organism-based
[6] = test system: Escherichia coli; experiment: Antimicrobial activity against Escherichia coli at 1.6125 to 50 ug/ml after 16 hr by serial dilution method; type: functional, organism-based
[7] = test system: Bacillus subtilis; experiment: Antimicrobial activity against Bacillus subtilis at 1.6125 to 50 ug/ml after 16 hr by serial dilution method; type: functional, organism-based
[8] = test system: Staphylococcus aureus; experiment: Antimicrobial activity against Staphylococcus aureus at 1.6125 to 50 ug/ml after 16 hr by serial dilution method; type: functional, organism-based

What does the source list for C=CCC(Nc1cccc2ncsc12)c1cn(C(C)=O)c2ccccc12 (configuration not stated)?
MIC [1]: 12.5 µg/mL (≈ 34.6 µM); MIC [2]: 12.5 µg/mL (≈ 34.6 µM); MIC [3]: 12.5 µg/mL (≈ 34.6 µM); MIC [4]: 12.5 µg/mL (≈ 34.6 µM)

With C=CCC(Nc1ccc(C(C)(C)C)cc1)C1CC1 (configuration not stated) as the compound, how does the Activity [5] read?
Its Activity is “inactive”.

And the Activity [6]?
Its Activity is “inactive”.

And the Activity [7]?
Its Activity is “inactive”.

And the Activity [8]?
Its Activity is “inactive”.

With C=CCC(NCc1ccc(F)c(F)c1)c1cc2ccccc2o1 (configuration not stated) as the compound, how does the MIC [1] read?
Its MIC is 3.12 µg/mL (≈ 9.97 µM).

And the MIC [2]?
Its MIC is 3.12 µg/mL (≈ 9.97 µM).

What about the MIC [3] of the same compound?
The MIC was 3.12 µg/mL (≈ 9.97 µM).

And the MIC [4]?
The MIC was 1.61 µg/mL (≈ 5.15 µM).

C=CCC(Nc1cccc2ccccc12)c1cc2ccccc2o1 (configuration not stated) was tested. Which Activity [5] did it give?
Its Activity is “inactive”.

What about the MIC [2] of the same compound?
Its MIC is 25 µg/mL (≈ 79.8 µM).

What about the MIC [3] of the same compound?
The MIC was 1.61 µg/mL (≈ 5.15 µM).

What about the MIC [4] of the same compound?
Its MIC is 1.61 µg/mL (≈ 5.15 µM).

Which results are given for C=CCC(Nc1cccc(F)c1)c1cc(OC)ccc1F (configuration not stated)?
MIC [1]: 1.61 µg/mL (≈ 5.58 µM); MIC [2]: 1.61 µg/mL (≈ 5.58 µM); MIC [3]: 1.61 µg/mL (≈ 5.58 µM); MIC [4]: 1.61 µg/mL (≈ 5.58 µM)

For C=CCC(Nc1cccc2ccccc12)c1ccccc1 (configuration not stated), which MIC [1] is on record?
The MIC was 25 µg/mL (≈ 91.4 µM).

And the MIC [2]?
Its MIC is 25 µg/mL (≈ 91.4 µM).

What about the MIC [3] of the same compound?
Its MIC is 25 µg/mL (≈ 91.4 µM).

And the MIC [4]?
Its MIC is 25 µg/mL (≈ 91.4 µM).

With C=CCC(Nc1cc(F)c(F)cc1F)c1ccc(F)cc1F (configuration not stated) as the compound, how does the MIC [1] read?
The MIC was 1.61 µg/mL (≈ 5.15 µM).

And the MIC [2]?
Its MIC is 1.61 µg/mL (≈ 5.15 µM).

And the MIC [3]?
Its MIC is 1.61 µg/mL (≈ 5.15 µM).

What about the MIC [4] of the same compound?
The MIC was 1.61 µg/mL (≈ 5.15 µM).

What does the source list for C=CCC(Nc1ccc(F)cc1)c1cccc(OCC)c1 (configuration not stated)?
MIC [1]: 3.12 µg/mL (≈ 11 µM); MIC [2]: 3.12 µg/mL (≈ 11 µM); MIC [3]: 3.12 µg/mL (≈ 11 µM); MIC [4]: 3.12 µg/mL (≈ 11 µM)

For C=CCC(Nc1ccc(Cl)cc1F)c1c(F)cccc1F (configuration not stated), which MIC [1] is on record?
Its MIC is 1.61 µg/mL (≈ 5.17 µM).

What about the MIC [2] of the same compound?
Its MIC is 1.61 µg/mL (≈ 5.17 µM).

And the MIC [3]?
The MIC was 1.61 µg/mL (≈ 5.17 µM).

What about the MIC [4] of the same compound?
Its MIC is 3.12 µg/mL (≈ 10 µM).

For CO/N=C(\C(=O)N[C@@H]1C(=O)N2C(C(=O)O)=C(CSc3nc(=O)c(O)nn3C)CS[C@H]12)c1csc(N)n1 [CEFTRIAXONE], which MIC [1] is on record?
The MIC was 1.61 µg/mL (≈ 2.91 µM).

What about the MIC [2] of the same compound?
Its MIC is 1.61 µg/mL (≈ 2.91 µM).

What about the MIC [3] of the same compound?
The MIC was 1.61 µg/mL (≈ 2.91 µM).

And the MIC [4]?
Its MIC is 3.12 µg/mL (≈ 5.63 µM).

How did the MIC [1] turn out when C=CCC(Nc1ccc(N2CCOCC2)cc1)C1CCCCC1 (configuration not stated) was run?
The MIC was 25 µg/mL (≈ 79.5 µM).

What about the MIC [2] of the same compound?
The MIC was 6.25 µg/mL (≈ 19.9 µM).

What about the MIC [3] of the same compound?
Its MIC is 6.25 µg/mL (≈ 19.9 µM).

And the MIC [4]?
Its MIC is 6.25 µg/mL (≈ 19.9 µM).

With C=CCC(Nc1ccc(C#N)cc1)c1ccsc1 (configuration not stated) as the compound, how does the MIC [1] read?
Its MIC is 6.25 µg/mL (≈ 24.6 µM).

What about the MIC [2] of the same compound?
The MIC was 3.12 µg/mL (≈ 12.3 µM).

What about the MIC [3] of the same compound?
The MIC was 6.25 µg/mL (≈ 24.6 µM).

And the MIC [4]?
The MIC was 6.25 µg/mL (≈ 24.6 µM).

What does the source list for C=CCC(Nc1ccc(C(C)(C)C)cc1)c1ccc(F)cc1F (configuration not stated)?
MIC [1]: 3.12 µg/mL (≈ 9.91 µM); MIC [2]: 3.12 µg/mL (≈ 9.91 µM); MIC [3]: 3.12 µg/mL (≈ 9.91 µM); MIC [4]: 3.12 µg/mL (≈ 9.91 µM)

C=CCOc1ccccc1C(CC=C)Nc1ccc(Oc2ccc(Cl)cc2)cc1 (configuration not stated) was tested. Which MIC [1] did it give?
Its MIC is 25 µg/mL (≈ 61.6 µM).

And the MIC [2]?
The MIC was 6.25 µg/mL (≈ 15.4 µM).

And the MIC [3]?
The MIC was 3.12 µg/mL (≈ 7.7 µM).

What about the MIC [4] of the same compound?
The MIC was 3.12 µg/mL (≈ 7.7 µM).

Which results are given for C=CCC(Nc1ccc(F)c(C(F)(F)F)c1)C1CC1 (configuration not stated)?
Activity [5]: inactive; Activity [6]: inactive; MIC [3]: 1.61 µg/mL (≈ 5.9 µM); MIC [4]: 1.61 µg/mL (≈ 5.9 µM)

What does the source list for C=CCC(Nc1ccc(Oc2ccc(Cl)cc2)cc1)c1ccc(-c2ccccc2Cl)o1 (configuration not stated)?
MIC [1]: 3.12 µg/mL (≈ 6.94 µM); MIC [2]: 3.12 µg/mL (≈ 6.94 µM); MIC [3]: 3.12 µg/mL (≈ 6.94 µM); MIC [4]: 3.12 µg/mL (≈ 6.94 µM)

For C=CCC(Nc1ccc(F)cc1F)c1ccc(F)cc1F (configuration not stated), which MIC [1] is on record?
The MIC was 1.61 µg/mL (≈ 5.46 µM).

What about the MIC [2] of the same compound?
The MIC was 1.61 µg/mL (≈ 5.46 µM).

What about the MIC [3] of the same compound?
Its MIC is 1.61 µg/mL (≈ 5.46 µM).

What about the MIC [4] of the same compound?
Its MIC is 1.61 µg/mL (≈ 5.46 µM).

How did the MIC [1] turn out when C=CCC(Nc1cc(C)ccc1C)C1CCCCC1 (configuration not stated) was run?
The MIC was 12.5 µg/mL (≈ 48.6 µM).

And the MIC [2]?
The MIC was 12.5 µg/mL (≈ 48.6 µM).

What about the MIC [3] of the same compound?
Its MIC is 12.5 µg/mL (≈ 48.6 µM).

What about the MIC [4] of the same compound?
Its MIC is 6.25 µg/mL (≈ 24.3 µM).
